Target: human TMEM16A (TMEM16Aabc variant) (Homo sapiens, UniProt Q5XXA6, DEL476-501, form not given)
Experiment: Automated whole-cell patch clamp (Qpatch) TMEM16A potentiator assay in FRT cells stably expressing human TMEM16A
Assay type: cell-based
Conditions: for % Potentiation @ 3.33 μM Avg: 3.33 μM solution of test compound, percentage increase of baseline TMEM16A current; for EC50: calculated EC50, Qpatch TMEM16A current at +70 mV
Text: FIG. 1 is an example trace from a whole-cell patch clamp (Qpatch) TMEM16A potentiator assay as used in Biological Example 95 and illustrates the methodology used in the assay. In FIG. 1: S is Saline; V is Vehicle; #1 is Test Compound concentration #1; #2 is Test Compound concentration 2; #3 is Test Compound concentration 3; #4 is Test Compound concentration 4; #5 is Test Compound concentration #5; and R is Reference. The arrow in column V represents the baseline current, IBL. The arrows in each of the columns #1, #2, #3, #4, #5 and R represent I#[1], I#[2], I#[3], I#[4], I#[5] and I[Ref], which are the peak currents during the incubation periods for test compounds concentrations #1 to #5 and the Reference.
Fisher rat thyroid (FRT) cells stably expressing human TMEM16A (TMEM16Aabc variant; Dr Luis Galietta, Insituto Giannina, Italy) were cultured in T-75 flasks in Hams F-12 media with Coon's modification (Sigma) supplemented with 10% (v/v) foetal bovine serum, penicillin-streptomycin (10,000 U/mL/10000 μg/mL), G-418 (750 μg/mL), L-glutamine (2 mM) and sodium bicarbonate solution (7.5% v/v). At ˜90% confluence cells were harvested for experiments by detachment with a 2:1 (v/v) mixture of Detachin (BMS Biotechnology) and 0.25% (w/v) trypsin-EDTA. Cells were diluted to a density of 3.5-4.5×10^6 cells/mL with media consisting of CHO-S-SFM II (Sigma), 25 mM HEPES (Sigma) and Soy bean trypsin inhibitor (Sigma).
FRT-TMEM16A cells were whole-cell patch clamped using an automated planar patch clamp system (Qpatch, Sophion). Briefly, once high resistance (GOhm) seals were established between the cells and the planar recording array the patch was ruptured using suction pulses to establish the whole-cell recording configuration of the patch clamp technique. The assay employed the following solutions (all reagents Sigma): Intracellular solution (mM): N-methyl-D-glucamine 130, CaCl2 18.2, MgCl2 1, HEPES 10, EGTA 10, BAPTA 20, Mg-ATP 2, pH 7.25, 325 mOsm with sucrose.
Extracellular solution (mM): N-methyl-D-glucamine 130, CaCl2 2, MgCl2 1, HEPES 10, pH 7.3, 320 mOsm with sucrose.
The intracellular solution buffers intracellular calcium at levels required to give ˜20% activation of the maximal TMEM16A mediated current (EC20 for calcium ions). Cells were voltage clamped at a holding potential of −70 mV and a combined voltage step (to +70 mV)/ramp (−90 my to +90 mV) was applied at 0.05 Hz. After a period of current stabilisation test compounds, solubilised in 100% (v/v) DMSO and subsequently diluted into extracellular solution, were applied to generate a cumulative concentration response curve. Each concentration of test compound was incubated for 5 minutes before addition of the next concentration. After the final concentration was tested a supramaximal concentration of either a known active positive modulator or the TMEM16A inhibitor, CaCCinhA01 (Del La Fuente et al, 2008) was added to define the upper and lower limits of the assay.
Compound activity was quantified by measuring the increase in current upon compound addition and expressing this as a percentage increase of baseline TMEM16A current level. Percentage increases in current were determined for each concentration and the data plotted as a function of concentration using either the Qpatch software or Graphpad Prism v6.05 providing the concentration which gave 50% of its maximal effect (EC50) and maximum efficacy (percentage of baseline increase).
In FIG. 1, IBL equals baseline current, I[#1] equals the peak current during test compound concentration 1 incubation period and so on.
Peak TMEM16A current at +70 mV was plotted as a function of time over the assay period. Baseline current (IBL) was measured after a period of stabilisation. The increase in current for each compound addition was determined by taking the peak current during the incubation period and subtracting the current from the previous recording period and then expressing this as a percentage of the baseline current. […]

human TMEM16A (TMEM16Aabc variant), sequence (Q5XXA6 with tags, fused parts or gaps DEL476-501): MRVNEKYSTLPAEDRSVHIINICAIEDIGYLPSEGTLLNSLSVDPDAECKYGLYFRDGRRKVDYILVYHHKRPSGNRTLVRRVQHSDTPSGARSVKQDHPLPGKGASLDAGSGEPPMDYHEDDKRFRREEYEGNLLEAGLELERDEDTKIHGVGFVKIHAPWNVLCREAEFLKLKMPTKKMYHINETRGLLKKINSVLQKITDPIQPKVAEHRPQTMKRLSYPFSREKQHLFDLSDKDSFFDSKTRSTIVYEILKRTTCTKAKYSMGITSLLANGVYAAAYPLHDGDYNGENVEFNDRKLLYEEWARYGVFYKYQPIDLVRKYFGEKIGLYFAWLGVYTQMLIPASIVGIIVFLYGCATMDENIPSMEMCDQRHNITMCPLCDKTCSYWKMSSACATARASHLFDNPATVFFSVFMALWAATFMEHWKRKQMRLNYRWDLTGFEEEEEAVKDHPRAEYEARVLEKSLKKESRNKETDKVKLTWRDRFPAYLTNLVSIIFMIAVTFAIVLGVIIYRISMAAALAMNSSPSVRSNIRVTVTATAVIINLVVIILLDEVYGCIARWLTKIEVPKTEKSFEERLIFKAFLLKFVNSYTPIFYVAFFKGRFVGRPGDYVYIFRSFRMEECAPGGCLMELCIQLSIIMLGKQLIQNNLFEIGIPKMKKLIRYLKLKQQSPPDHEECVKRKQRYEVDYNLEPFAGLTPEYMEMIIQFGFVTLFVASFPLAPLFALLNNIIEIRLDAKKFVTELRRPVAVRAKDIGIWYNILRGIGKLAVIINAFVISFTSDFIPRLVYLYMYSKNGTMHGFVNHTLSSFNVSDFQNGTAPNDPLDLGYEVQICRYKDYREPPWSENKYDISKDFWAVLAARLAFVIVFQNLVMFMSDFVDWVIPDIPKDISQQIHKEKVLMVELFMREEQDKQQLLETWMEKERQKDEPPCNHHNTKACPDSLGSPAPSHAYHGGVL

CCC(C)(C)NC(=O)c1cccc(NC(=O)Cc2ccccc2O)c1 [Example 1.1, N-(1,1-Dimethylpropyl)-3[[2-(2-hydroxyphenyl)acetyl]amino]benzamide]
% Potentiation @ 3.33 μM Avg: 182%
EC50: 560 nM

COC(C)c1cc(Cl)cc(CC(=O)Nc2ccnc(C(=O)NC(C)(C)C)c2)c1O (stereo not shown) [Example 62, N-tert-Butyl-4-[[2-[5-chloro-2-hydroxy-3-(1-methoxyethyl)phenyl]acetyl]amino] pyridine-2-carboxamide]
% Potentiation @ 3.33 μM Avg: 99%

O=C(Cc1cc(Cl)ccc1O)Nc1ccnc(C(=O)NC2CCOCC2)c1 [Example 7.11, 4-[[2-(5-Chloro-2-hydroxy-phenyl)acetyl]amino]-N-tetrahydropyran-4-yl-pyridine-2-carboxamide]
% Potentiation @ 3.33 μM Avg: 167%
EC50: 320 nM

O=C(Cc1cc(Cl)ccc1O)Nc1ccnc(C(=O)NC2(CO)CCOC2)c1 (racemic) [Example 35, 4-[[2-(5-Chloro-2-hydroxy-phenyl)acetyl]amino]-N-[3-(hydroxymethyl)tetrahydrofuran-3-yl]pyridine-2-carboxamide]
% Potentiation @ 3.33 μM Avg: 180%
EC50: 190 nM

CC(C)(C)NC(=O)c1cccc(NC(=O)Cc2c(O)ccc(F)c2F)c1 [Example 2.11, N-tert-Butyl-3-[[2-(2,3-difluoro-6-hydroxy-phenyl)acetyl]amino] benzamide]
% Potentiation @ 3.33 μM Avg: 126%
EC50: 430 nM

CC1(NC(=O)c2cc(NC(=O)Cc3cc(C(C)(C)C)ccc3O)ccn2)CCC1 [Example 3.6a, 4-[[2-(5-tert-Butyl-2-hydroxy-phenyl)acetyl]amino]-N-(1-methylcyclobutyl)pyridine-2-carboxamide]
% Potentiation @ 3.33 μM Avg: 546%
EC50: 370 nM

N#CC1(NC(=O)c2cc(NC(=O)Cc3cccc(Cl)c3)ccn2)CC1 [Example 23.1, 4-[[2-(3-Chlorophenyl)acetyl]amino]-N-(1-cyanocyclopropyl)pyridine-2-carboxamide]
% Potentiation @ 3.33 μM Avg: 150%

CC(C)(C)NC(=O)c1cc(NC(=O)Cc2ccc3nccnc3c2)ccn1 [Example 5.23, N-tert-Butyl-4-[(2-quinoxalin-6-ylacetyl)amino]pyridine-2-carboxamide]
% Potentiation @ 3.33 μM Avg: 144%
EC50: 1200 nM

CC1(NC(=O)c2cccc(NC(=O)Cc3cc(Cl)ccc3O)c2)CCCCC1 [Example 71.1, 3-[[2-(5-Chloro-2-hydroxy-phenyl)acetyl]amino]-N-(1-methylcyclohexyl)benzamide]
% Potentiation @ 3.33 μM Avg: 256%
EC50: 250 nM

CC(C)(C)OC(=O)N1CCCC(NC(=O)c2cccc(NC(=O)Cc3cc(Cl)ccc3O)c2)C1 (stereo not shown) [Example 8, tert-Butyl-3-[[3-[[2-(5-chloro-2-hydroxy-phenyl)acetyl]amino]benzoyl]amino] piperidine-1-carboxylate]
% Potentiation @ 3.33 μM Avg: 88%
EC50: 3020 nM

O=C(Cc1cc(Cl)ccc1O)Nc1ccnc(C(=O)NC2CCCC(O)C2)c1 (stereo not shown) [Example 35.6, 4-[[2-(5-Chloro-2-hydroxy-phenyl)acetyl]amino]-N-(3-hydroxycyclohexyl)pyridine-2-carboxamide]
% Potentiation @ 3.33 μM Avg: 53%

CC(C)(C)NC(=O)c1cccc(NC(=O)Cc2cccc(F)c2O)c1 [Example 2.2, N-tert-Butyl-3-[[2-(3-fluoro-2-hydroxy-phenyl)acetyl]amino]benzamide]
% Potentiation @ 3.33 μM Avg: 158%
EC50: 1610 nM

CCCC(C)(C)NC(=O)c1cccc(NC(=O)Cc2cc(Cl)ccc2O)c1 [Example 7.1, 3-[[2-(5-Chloro-2-hydroxy-phenyl)acetyl]amino]-N-(1,1-dimethylbutyl)benzamide]
% Potentiation @ 3.33 μM Avg: 241%
EC50: 340 nM

CC(C)(C#N)NC(=O)c1cc(NC(=O)c2ccsc2)ccn1 [Example 83, N-(1-Cyano-1-methyl-ethyl)-4-(thiophene-3-carbonylamino)pyridine-2-carboxamide]
% Potentiation @ 3.33 μM Avg: 6%

O=C(Cc1cc(Cl)ccc1O)Nc1ccnc(C(=O)NC23CC(C2)C3)c1 [Example 7.15, N-(3-Bicyclo[1.1.1]pentanyl)-4-[[2-(5-chloro-2-hydroxy-phenyl)acetyl]amino]pyridine-2-carboxamide]
% Potentiation @ 3.33 μM Avg: 230%
EC50: 50 nM

CC(C)(C)NC(=O)c1cc(NC(=O)Cc2cc(Cl)ccc2O)ncn1 [Example 85, N-tert-Butyl-6-[[2-(5-chloro-2-hydroxy-phenyl)acetyl]amino] pyrimidine-4-carboxamide]
% Potentiation @ 3.33 μM Avg: 155%
EC50: 350 nM

O=C(Cc1cc(Cl)ccc1O)Nc1cccc(C(=O)NC2(CO)CCOC2)c1 (stereo not shown) [Example 74.1, 3-[[2-(5-Chloro-2-hydroxy-phenyl)acetyl]amino]-N-[3-(hydroxymethyl)tetra hydrofuran-3-yl]benzamide]
% Potentiation @ 3.33 μM Avg: 49%

CC(=O)Nc1ccc(C(=O)Nc2ccnc(C(=O)NC(C)(C)C#N)c2)cc1 [Example 83.29, 4-[(4-Acetamidobenzoyl)amino]-N-(1-cyano-1-methyl-ethyl)pyridine-2-carboxamide]
% Potentiation @ 3.33 μM Avg: -9%

C#CC(C)(C)NC(=O)c1cccc(NC(=O)Cc2cc(Cl)ccc2O)c1 [Example 74, 3-[[2-(5-Chloro-2-hydroxy-phenyl)acetyl]amino]-N-(1,1-dimethylprop-2-ynyl)benzamide]
% Potentiation @ 3.33 μM Avg: 337%
EC50: 180 nM

CC#CC(C)(C)NC(=O)c1cc(NC(=O)Cc2cc(Cl)ccc2O)ccn1 [Example 73.1, 4-[[2-(5-Chloro-2-hydroxy-phenyl)acetyl]amino]-N-(1,1-dimethylbut-2-ynyl) pyridine-2-carboxamide]
% Potentiation @ 3.33 μM Avg: 389%
EC50: 280 nM

CC(C)(C#N)NC(=O)c1cc(NC(=O)CC2CCCCC2)ccn1 [Example 83.1, N-(1-Cyano-1-methyl-ethyl)-4-[(2-cyclohexylacetyl)amino]pyridine-2-carboxamide]
% Potentiation @ 3.33 μM Avg: 159%

CC(C)(C)NC(=O)c1cccc(NC(=O)Cc2cccc(O)c2)c1 [Example 4, N-tert-Butyl-3-[[2-[3-hydroxyphenyl]acetyl]amino]benzamide]
% Potentiation @ 3.33 μM Avg: 96%
EC50: 1500 nM

CC(NCC(F)(F)F)c1ccc(O)c(CC(=O)Nc2ccnc(C(=O)NC(C)(C)C)c2)c1 (stereo not shown) [Example 67, N-tert-Butyl-4-[[2-[2-hydroxy-5-[1-(2,2,2-trifluoroethylamino)ethyl]phenyl]acetyl]amino]pyridine-2-carboxamide]
% Potentiation @ 3.33 μM Avg: 158%
EC50: 1100 nM

COC(=O)c1ccc(O)c(CC(=O)Nc2cccc(C(=O)NC(C)(C)C)c2)c1 [Example 2.18, Methyl 3-[2-[3-(tert-butylcarbamoyl)anilino]-2-oxo-ethyl]-4-hydroxy-benzoate]
% Potentiation @ 3.33 μM Avg: 118%
EC50: 1410 nM

CC(=O)NCCC(C)(C)NC(=O)c1cc(NC(=O)Cc2cc(Cl)ccc2O)ccn1 [Example 51, N-(3-Acetamido-1,1-dimethyl-propyl)-4-[[2-(5-chloro-2-hydroxy-phenyl)acetyl]amino]pyridine-2-carboxamide]
% Potentiation @ 3.33 μM Avg: 54%

N#CC1(NC(=O)c2cccc(NC(=O)Cc3cc(Cl)ccc3O)c2)CCOC1 (stereo not shown) [Example 71, 3-[[2-(5-Chloro-2-hydroxy-phenyl)acetyl]amino]-N-(3-cyanotetrahydrofuran-3-yl)benzamide]
% Potentiation @ 3.33 μM Avg: 162%

From patent US20200361871A1 (Enterprise Therapeutics Ltd., priority 2018, published 2020)
